Results published in patent publication US20050085554A1, “Methods of treating disease through the administration of a manzamine analog or derivative” (priority 2003, published 2005).
pEC50: −log10 of the molar value. ≈ marks a conversion by molar mass, not a printed value.

Experiments:
[1] = test system: P. falciparum (chlorine-resistant W2 clone); test: Antimalarial activity in vitro, W2 clone; assay type: cell-based, Plasmodium falciparum
[2] = test system: Plasmodium falciparum (D6 clone); test: Antimalarial activity in vitro, D6 clone; assay type: cell-based
[3] = test system: Mycobacterium tuberculosis H37Rv; test: In vitro antimycobacterial activity (Microplate Alamar Blue Assay), MIC; assay type: cell-based; settings: for MIC against Mycobacterium tuberculosis (Mtb): rifampin = positive control; for Mycobacterium Tuberculosis (H37Rv) MIC: T4
Candida albicans = test: Antifungal activity against Candida albicans; assay type: cell-based
Staphylococcus aureus = test: Antibacterial activity against S. aureus; assay type: cell-based; settings: for Antibacterial IC50 S. aureus: T5, NA = not active
Cryptococcus neoformans = test: Antifungal activity against Cryptococcus neoformans; assay type: cell-based; settings: for Antifungal IC50 C. neoformans: T5, NA = not active
Aspergillus fumigatus = test: Antifungal activity against Aspergillus fumigatus; assay type: cell-based; settings: T6, footnote a: the lowest concentration that significantly inhibits growth
[4] = test system: methicillin-resistant Staphylococcus aureus; test: Antibacterial activity against MRS; assay type: cell-based; settings: for Antibacterial IC50 MRS: T5, NA = not active
[5] = test system: Mycobacterium intracellulare; test: Activity against M. intracellulare; assay type: cell-based; settings: for IC50 M. intracellulare: T5, NA = not active
Leishmania donovani = test: Antileishmanial activity in vitro; assay type: cell-based
HIV-1LAV = test: Anti-HIV-1 activity in PBM cells; assay type: cell-based, human immunodeficiency virus (HIV-1)
Description: Anti-HIV-1 activity was determined in PBM cells as described previously. See, Stock solutions (20 or 40 mM) of the compounds were prepared in sterile DMSO and then diluted to the desired concentration in growth medium. Cells were infected with the prototype HIV-1LAV at a multiplicity of infection of 0.1. Details on the infection of cells and assessment of antiviral effects was described previously. See, Schinazi, R. F.; McMillan, A.; Cannon, D.; Mathis, R.; Lloyd, R. M.; Peck, A.; Sommadossi, J.-P.; Clair, M. S.; Wilson, J.; Furman, P. A.; Painter G.; Choi, W.-B.; Liotta, D. C. Antimicrob. Agents Chemother. 1992, 36, 2423-2431 and Schinazi, R. F.; Sommadossi, J.-P.; Saalmann, V.; Cannon, D. L.; Xie, M.-Y.; Hart, G. C.; Smith, G. A.; Hahn, E. F. Antimicrob. Agents Chemother. 1990, 34, 1061-1067.

[6] = test system: human lung carcinoma A-549
[7] = test system: human colon carcinoma H-116
Vero cells = test: In vitro cytotoxicity to mammalian cells (Vero)
[8] = T4, NC = No Cytotoxicity (concentration: 4760 ng/ml)

Compound: C1=C/[C@@H]2[C@H]3CCCC[C@@H]3C[C@@H]2NCCCNC2C[C@H]3CCCC[C@@H]3[C@H]2/C=C/1 (single isomer, unassigned; (-)) [Papuamine, (−)-papuamine]
- IC50 ([1]; Plasmodium falciparum, W2, T6, read-out: P. falciparum (W2 clone) IC50): 0.34 µg/mL (≈ 0.922 µM)
- IC50 ([2]; Plasmodium falciparum, D6, T6): 0.15 µg/mL (≈ 0.407 µM)
- MIC ([3]; Mycobacterium tuberculosis, H37RV, T6, read-out: Mycobacterium tuberculosis MIC): 0.4 µg/mL (≈ 1.09 µM)
- IC50 (Candida albicans; Candida albicans, T6): 1.5 µg/mL (≈ 4.07 µM)
- MIC (Candida albicans; Candida albicans, T6, MIC: lowest concentration that allows no detectable growth): 5 µg/mL (≈ 13.6 µM)
- MIC (Staphylococcus aureus; Staphylococcus aureus, T6): 5 µg/mL (≈ 13.6 µM)
- IC50 (Staphylococcus aureus; Staphylococcus aureus, T6, read-out: Staphylococcus aureus IC50): 2.5 µg/mL (≈ 6.78 µM)
- MIC (Cryptococcus neoformans; Cryptococcus neoformans, lowest concentration that allows no detectable growth): 0.63 µg/mL (≈ 1.71 µM)
- IC50 (Cryptococcus neoformans; Cryptococcus neoformans, read-out: Cryptococcus neoformans IC50): 0.35 µg/mL (≈ 0.95 µM)
- MIC (Aspergillus fumigatus; Aspergillus fumigatus): 1.25 µg/mL (≈ 3.39 µM)
- MIC ([4]; Staphylococcus aureus, T6): 5 µg/mL (≈ 13.6 µM)
- IC50 ([4]; T6, MRS: methicillin-resistant Staphylococcus aureus, read-out: MRS IC50): 2.5 µg/mL (≈ 6.78 µM)
- IC50 ([5]; Mycobacterium intracellulare, T6, read-out: Mycobacterium intracellulare IC50): 4 µg/mL (≈ 10.9 µM)

Compound: C[C@@H]1[C@H](O)[C@@H](C)/C=C/C=C/C=C/C=C/C=C/C=C/C=C/[C@H](O[C@@H]2O[C@H](C)[C@@H](O)[C@H](N)[C@@H]2O)C[C@@H]2O[C@](O)(C[C@@H](O)C[C@@H](O)[C@H](O)CC[C@@H](O)C[C@@H](O)CC(=O)O[C@H]1C)C[C@H](O)[C@H]2C(=O)O [Amphotericin B, reference compound]
- Leishmania donovani IC 50 (Leishmania donovani; T4): 0.06 µg/mL
- Leishmania donovani IC 90 (Leishmania donovani; T4): 0.15 µg/mL
- Candida albicans IC50 (Candida albicans; T6): 0.10 µg/mL
- Candida albicans MIC (Candida albicans; T6, MIC: lowest concentration that allows no detectable growth): 0.63 µg/mL
- Cryptococcus neoformans IC50 (Cryptococcus neoformans): 0.25 µg/mL
- Antifungal IC50 C. neoformans (Cryptococcus neoformans): 0.15 µg/mL
- Cryptococcus neoformans MIC (Cryptococcus neoformans; lowest concentration that allows no detectable growth): 0.63 µg/mL
- Aspergillus fumigatus MIC (Aspergillus fumigatus): 0.63^a μg/mL

Compound: CC(=O)C[C@H]1C[C@H]2[C@H]([C@@H]3c4[nH]c5ccccc5c4CCN13)[C@H](O)C13CC/C=C\CCCCN1CC21C2CCCCCCCN2[C@H]13 (some centres unmarked) [Manadomanzamine A]
- EC50 against human immunodeficiency virus (HIV-1) (HIV-1LAV): 6.96 µg/mL (≈ 11.4 µM)
- IC50 against human lung carcinoma A-549 [6]: 2.5 µg/mL (≈ 4.09 µM)
- MIC against Mycobacterium tuberculosis (Mtb) [3]: 1.86 µg/mL (≈ 3.04 µM)
- IC50 against the fungus Candida albicans (Candida albicans): 20 µg/mL (≈ 32.7 µM)
- IC50 against human colon carcinoma H-116 [7]: 5.0 µg/mL (≈ 8.18 µM)

Compound: CC(=O)C[C@@H]1C[C@H]2[C@H]([C@@H]3c4[nH]c5ccccc5c4CCN13)[C@H](O)C13CC/C=C\CCCCN1CC21C2CCCCCCCN2[C@H]13 (some centres unmarked) [Manadomanzamine B]
- EC50 against human immunodeficiency virus (HIV-1) (HIV-1LAV): 16.5 µg/mL (≈ 27 µM)
- MIC against Mycobacterium tuberculosis (Mtb) [3]: 1.53 µg/mL (≈ 2.5 µM)
- IC50 against the fungus Cryptococcus neoformans (Cryptococcus neoformans): 3.5 µg/mL (≈ 5.73 µM)
- IC50 against human colon carcinoma H-116 [7]: 5.0 µg/mL (≈ 8.18 µM)

Compound: O[C@]12C=C(c3nccc4c3[nH]c3ccccc34)[C@@H]3CCN(CCCC/C=C\CC1)C[C@@]31C[C@@H]3/C=C\CCCCN3[C@H]12 [Manzamine A]
- P. falciparum (chlorine-resistant W2 clone) IC 50 ([1]; T4, NA = not active): 0.008 µg/mL
- P. falciparum (chlorine-resistant W2 clone) IC 50 ([1]; T7): 0.008 µg/mL
- Cytotoxicity (Vero) (Vero cells; [8]): 1200 ng/mL
- Cytotoxicity (Vero) (Vero cells; T7, NC not defined in this table): 1200 ng/mL
- Leishmania donovani IC 50 (Leishmania donovani; T4): 0.9 µg/mL
- Leishmania donovani IC 90 (Leishmania donovani; T4): 1.8 µg/mL
- Leishmania donovani IC 50 (Leishmania donovani; T7): 0.9 µg/mL
- Leishmania donovani IC 90 (Leishmania donovani; T7): 1.8 µg/mL
- pEC50 (HIV-1LAV; T5): 5.38
- Plasmodium falciparum (D6 clone) IC 50 ([2]; T4, NA = not active): 0.0045 µg/mL
- Plasmodium falciparum (D6 clone) IC 50 ([2]; T7): 0.0045 µg/mL
- Mycobacterium Tuberculosis (H37Rv) MIC [3]: 1.53 µg/mL
- Antibacterial IC50 S. aureus (Staphylococcus aureus): 0.5 µg/mL
- Antifungal IC50 C. neoformans (Cryptococcus neoformans): 3.0 µg/mL
- Antibacterial IC50 MRS [4]: 0.7 µg/mL
- IC50 M. intracellulare [5]: 0.35 µg/mL (≈ 0.638 µM)
- M. intracellulare IC50 ([5]; T7, first value of a cell '2.0/5.0'): 1.53 µg/mL

Compound: Manzamine A N-oxide
- P. falciparum (chlorine-resistant W2 clone) IC 50 ([1]; T4, NA = not active): 0.013 µg/mL
- Cytotoxicity (Vero) (Vero cells; [8]): 420 ng/mL
- Leishmania donovani IC 50 (Leishmania donovani; T4): 1.1 µg/mL
- Leishmania donovani IC 90 (Leishmania donovani; T4): 3.8 µg/mL
- Plasmodium falciparum (D6 clone) IC 50 ([2]; T4, NA = not active): 0.011 µg/mL
- Mycobacterium Tuberculosis (H37Rv) MIC [3]: 3.9 µg/mL
- Antibacterial IC50 S. aureus (Staphylococcus aureus): 0.5 µg/mL
- Antifungal IC50 C. neoformans (Cryptococcus neoformans): 1.0 µg/mL
- Antibacterial IC50 MRS [4]: 0.35 µg/mL
- IC50 M. intracellulare [5]: 0.2 µg/mL

Compound: xestomanzamine A
- EC50 against human immunodeficiency virus (HIV-1) (HIV-1LAV): 11.2 µg/mL
- Cytotoxicity IC50 A-594 [6]: >5 µg/mL
- Anti-TB MIC ([3]; T1, no unit in table): 14.1 µg/mL
- IC50 against the fungus Cryptococcus neoformans (Cryptococcus neoformans): 6.0 µg/mL
- Cytotoxicity IC50 H-116 [7]: >5 µg/mL
